# Assay results taken from patent US10407400B2, “Compounds, compositions, and methods for modulating sweet taste” (Chromocell Corporation, priority 2015, dated 2019).
# Tested on: perception of sweet taste of High Fructose Corn Syrup (HFCS)
# Test: Two-alternative forced choice (2AFC) sip and spit sensory test of perceived sweetness in Lemon Lime beverage
# Format: in vivo, humans
# Details: Lemon Lime beverage pH 3.1
# Method: Effect of Test Compounds on the Perception of Sweet Taste of High Fructose Corn Syrup (HFCS) Two-alternative Forced Choice Method (2AFC). The effect of the test compounds and combinations of test compounds on the perception of the sweet taste of a flavored beverage (referred to as Lemon Lime henceforth) of sweetener in humans was evaluated using a two-alternative forced choice “sip and spit” method (2AFC). The Lemon Lime solutions were prepared by adding sucrose equivalent (SE) quantities of high fructose corn syrup (HFCS) (by weight), to water to achieve the desired concentration. The lemon lime pH is 3.1. Compounds were first prepared as a 500-fold concentrated stock solution in 100% ethanol. These concentrated stocks were then added to the aqueous sweetener solutions to result in a final ethanol concentration of 0.2%. […] In this manner, compounds were not assessed simply for an increase in perceived sweetness, but a significant increase in perceived sweetness above the positive control. […] Data were analyzed using binomial probabilities. Approximate levels of sweetness enhancement in column 5 of Table 1 were calculated as follows: Approximate levels of sweetness enhancement=Sweetener concentration of positive control surpassed by the test sample, divided by sweetener concentration for compound-containing sample (e.g. 1.5×=7.5brix HFCS/5brix HFCS).
structure (smiles),measurement,setting,value
"COc1cc(C2CC(=O)Oc3cc(C)cc(O)c32)ccc1O (racemic) [Compound 1, 5-hydroxy-4-(4-hydroxy-3-methoxyphenyl)-7-methylchroman-2-one]",Fold increase in perceived sweetness,"positive control 10brix HFCS surpassed, divided by test sample 7.14brix HFCS, compound concentration 25 ppm (1) or 41.25 ppm (1 & 4)",>1.4X
same,Compound concentration with positive 2AFC results,"test sample 7.14brix HFCS with compound surpassed positive control 10brix HFCS, taste panelists n≥15, 0.2% ethanol",25 ppm
